Assay: Ex vivo energy facilitated drug delivery from coated balloon to arteries in closed flow loop, HPLC quantification
Format: in vitro ADME, swine
Conditions: ex vivo porcine arteries, Trireme Chocolate balloon 6.0×40 coated with paclitaxel:PEG-8000 5:1 at 3.0 ug/mm2, GenePulser II 0.5 kV/1 μF, 3 pulses during about 1 minute expansion, vs same device without voltage
Source text: The energy source to power the device is a pulse generator capable of producing square waves. One commercial example of such a device is the BioRad Gene Pulser II (FIG. 7). The square wave generator produces suitable voltages between the range of 0.001 kV and 5 kV across the membrane. For all prototyping, this device was used to power all of coated catheters by connecting to the wire connection at the proximal catheter end. […] The tissue is then stored in isotonic saline and placed on ice (or 4° C.) for immediate use in an ex-vivo circulatory system.
Ex Vivo Testing Protocol • Fresh PBS is made with pre-measured pellets (1 pellet/100 ml H2O). • Porcine arterial tissue was acquired and cut to length • Arteries are placed in fresh PBS while cleaning of adventitia is performed. • Arteries are attached to the circulation apparatus with cannulas to allow flow through the vessel. […]

In the case of `CC(=O)O[C@H]1C(=O)[C@@]2(C)[C@H]([C@H](OC(=O)c3ccccc3)[C@]3(O)C[C@H](OC(=O)[C@H](O)[C@@H](NC(=O)c4ccccc4)c4ccccc4)C(C)=C1C3(C)C)[C@]1(OC(C)=O)CO[C@@H]1C[C@@H]2O` [paclitaxel], the “enhancement of the transfer of paclitaxel to arteries by application of voltage (factor)” value is reported as 10 ×.

Source: patent publication US20230381473A1, “Drug Device Electroporation Angioplasty System” (Hydra Vascular LLC, priority 2014, published 2023)
